Test results taken from patent US20140005119A1, “COMPOSITIONS AND METHODS FOR INHIBITING THE ACTIVITY OF P110a MUTANT PROTEINS” (Case Western Reserve University, priority 2012, published 2014).
Bridges are numbered along the chain shown (N, C = ends). Where no end group is shown, it is not given here. [ ]: non-standard residue; d: D form. S5 = C=CCCC[C@](C)(N)C(=O)O

Legend:
[1] = tested on: DLD1 xenograft tumor (p110α E545K); test: Peptide treatment of DLD1 xenograft tumors in athymic nude mice; assay type: in vivo; conditions: intratumoral 250 μg daily for 14 days, versus water control
Description: FIGS. 5(A-D) illustrate: (A) An athymic nude mouse with a xenograft Tumor growth of cancer cells harboring the p110α E545K Mutation (A and B) and treated with Stapled p110α E545K Mutant Peptide. Five million DLD1 cells were injected subcutaneously and bilaterally into athymic nude mice. Once the xenograft tumors reach 100-150 mm^3, the left side tumors were injected with the stapled WT peptide and the right side tumors were injected with the stapled mutant peptide daily for 14 days. Ten tumors of similar size in five other athymic nude mice were injected with an equal amount of water as controls. Tumor sizes were measured every 2 days. Representative pictures of mice injected with the peptides are shown in (A) and quantitative measurements are shown in (B). Arrows indicate tumors treated with the stapled WT peptide and the red arrows indicate tumors treated with the stapled mutant peptide. The p value was calculated using ANOVA analysis. […] All quantitative measurements are plotted as mean±SEM.
Animal experiments were approved by the Case Western Reserve University Animal Care and Use Committee. […] Tumor volume was measured with electronic calipers, and volumes were calculated as length 3 width^2/2.
Five-week-old male athymic nude mice were injected with 5 million cells subcutaneously and bilaterally. […] The tumor sizes were measured every 2 days.

[2] = target: T1, cellular p110α-p85 interaction (Homo sapiens, UniProt P42336, E545K); test: Co-IP from treated cells, cellular p110α-p85 interaction; assay type: cell-based
T1 construct: tag the endogenous WT or mutant p110α with 3×FLAG at their C termini in DLD1 cells; endogenous in cells; host or cells: DLD1 p110α E545K 3×FLAG knock-in cells
Description: (§1) FIG. 4(A-F) illustrate: (A) Schematic diagram of linear and stapled WT and mutant peptides derived from p110α (SEQ ID NOs: 5, 6, 7 and 8). (B) Immunoblots of cell lysates immunoprecipitated with beads conjugated with anti-FLAG antibodies and then blotted with the indicated antibodies. Linear or stapled WT and mutant peptide were added into culture medium of the p110α E545K 3×FLAG KI cells for 16 hr. (C) Immunoblots of cell lysates immunoprecipitated with anti-p110α antibodies and then blotted with the indicated antibodies. Vaco481 CRC cells were treated with the stapled mutant peptides at the indicated concentration. (D) Immunoblots of cell lysates blotted with the indicated antibodies. The indicated cell lines were treated with the stapled mutant peptide. (E) Immunoblots of cell lysates blotted with the indicated antibodies. […]
(§2) For Co-immunoprecipitation (Co-IP), cells were harvested, washed with PBS, and then lysed in IP buffer (50 mMTris [pH 7.4], 150 mMNaCl, 5 mMEDTA [pH 8.0], 0.5% NP40, 1 mM PMSF, complete Protease Inhibitor Cocktail tablet [Roche]; supplemented with phosphatase inhibitors [1 mM Na3VO4, 20 mM NaF, 0.1 mM b-glycerophosphate, 20 mM sodium pyrophosphate] when necessary). […] Lysates were then cleared by centrifugation (14,000 rpm, 10 min) and protein concentration in supernatants was determined with a BCA protein assay kit (Pierce, Rockford, Ill.). […]

[3] = tested on: p110α; test: Immunoblot of treated cell lines, p110α protein level; assay type: cell-based, human
Description: as §1, §2

T1 sequence (P42336 whole entry E545K): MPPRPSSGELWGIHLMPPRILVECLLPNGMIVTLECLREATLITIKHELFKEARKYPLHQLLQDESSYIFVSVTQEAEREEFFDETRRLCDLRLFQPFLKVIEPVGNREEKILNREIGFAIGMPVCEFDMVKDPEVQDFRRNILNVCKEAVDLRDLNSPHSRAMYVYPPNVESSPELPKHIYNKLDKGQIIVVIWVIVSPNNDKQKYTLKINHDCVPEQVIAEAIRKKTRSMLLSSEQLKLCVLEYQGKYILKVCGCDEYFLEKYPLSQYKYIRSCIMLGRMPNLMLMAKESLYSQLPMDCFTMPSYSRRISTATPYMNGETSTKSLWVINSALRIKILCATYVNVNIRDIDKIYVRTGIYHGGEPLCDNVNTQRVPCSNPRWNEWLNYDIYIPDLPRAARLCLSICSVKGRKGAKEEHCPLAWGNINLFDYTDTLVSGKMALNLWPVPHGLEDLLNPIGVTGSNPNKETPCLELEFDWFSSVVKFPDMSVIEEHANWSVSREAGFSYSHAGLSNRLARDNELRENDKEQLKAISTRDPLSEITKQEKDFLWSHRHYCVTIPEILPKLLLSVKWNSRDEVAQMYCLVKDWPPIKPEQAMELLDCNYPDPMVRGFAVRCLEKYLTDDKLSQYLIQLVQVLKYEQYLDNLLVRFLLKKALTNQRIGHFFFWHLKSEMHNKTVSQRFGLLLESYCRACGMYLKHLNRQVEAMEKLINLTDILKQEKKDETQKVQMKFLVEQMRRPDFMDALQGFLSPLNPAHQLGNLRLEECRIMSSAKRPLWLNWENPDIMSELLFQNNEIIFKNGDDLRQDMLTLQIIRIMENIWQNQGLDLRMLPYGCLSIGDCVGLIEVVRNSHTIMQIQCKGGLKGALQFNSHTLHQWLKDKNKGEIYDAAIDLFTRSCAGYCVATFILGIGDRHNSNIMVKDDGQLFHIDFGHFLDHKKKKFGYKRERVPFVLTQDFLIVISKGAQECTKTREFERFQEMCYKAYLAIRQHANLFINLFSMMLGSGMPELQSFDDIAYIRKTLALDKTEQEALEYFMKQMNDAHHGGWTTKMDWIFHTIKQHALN
T1 sequence (P27986 whole entry partner): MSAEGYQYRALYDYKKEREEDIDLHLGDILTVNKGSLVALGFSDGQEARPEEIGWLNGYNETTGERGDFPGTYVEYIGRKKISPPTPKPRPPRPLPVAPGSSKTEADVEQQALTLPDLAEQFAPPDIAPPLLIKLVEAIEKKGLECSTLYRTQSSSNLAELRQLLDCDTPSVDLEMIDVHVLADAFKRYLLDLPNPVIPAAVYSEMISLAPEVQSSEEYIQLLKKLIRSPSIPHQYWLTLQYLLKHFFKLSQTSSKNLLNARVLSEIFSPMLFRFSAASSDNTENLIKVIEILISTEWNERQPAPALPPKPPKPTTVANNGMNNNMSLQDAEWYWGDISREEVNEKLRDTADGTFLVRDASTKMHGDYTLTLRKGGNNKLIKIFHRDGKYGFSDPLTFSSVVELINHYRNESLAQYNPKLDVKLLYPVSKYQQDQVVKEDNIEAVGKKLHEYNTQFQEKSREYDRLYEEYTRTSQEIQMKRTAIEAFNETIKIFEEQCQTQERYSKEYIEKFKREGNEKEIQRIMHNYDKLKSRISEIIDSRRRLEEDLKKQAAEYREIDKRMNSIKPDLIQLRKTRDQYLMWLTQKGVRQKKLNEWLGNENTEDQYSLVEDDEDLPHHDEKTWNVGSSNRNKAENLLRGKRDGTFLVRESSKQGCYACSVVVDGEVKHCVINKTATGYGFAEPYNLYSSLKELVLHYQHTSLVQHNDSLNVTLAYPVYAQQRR

Substance | DLD1 xenograft tumor growth [1] | cellular p110α-p85 interaction [2] | protein levels of p110α [3]
H2N-SEITEQEKD^549-FLW-S^553-HRHYC-COOH (SEITEQEK[S5]FLW[S5]HRHYC; staple 9-13; not fully specified (N-terminus, C-terminus); printed as H2N-SEITEQEKD549-FLW-S553-HRHYC-COOH; listed as Homo sapiens) [stapled WT peptide, stapled wild-type p110α counterpart of the stapled mutant peptide, used as control, reference compound] | did not inhibit | – | –
H2N-SEITKQEK-D^549-FLW-S^553-HRHYC-COOH [stapled mutant peptide] | significantly slowed | did not interfere | slightly reduce
